Positions of bridges follow the written chain, without caps; N, C: chain ends. Non-standard residues stand in square brackets, D forms with d. Residues, ends and D or L forms follow the SMILES beside them. Groups on a side chain read outwards from the residue. *: point of attachment. CH3O(CH2CH2O)11CH2CH2CO = COCCOCCOCCOCCOCCOCCOCCOCCOCCOCCOCCOCCC(=O)*; X1 = C[N+](C)(CCNC(=O)CCCCCCCCCCCCCCCCC(=O)O)CC(=O)*; X5 = CCCCCCCCCCCCCCCC(=O)NCC[N+](C)(C)CC(=O)*; Dip = N[C@H](C(=O)O)C(c1ccccc1)c1ccccc1; Pro(3S-OH) = O=C(O)[C@H]1NCC[C@@H]1O; Pro(3R-OH) = O=C(O)[C@H]1NCC[C@H]1O; Palmitoyl = CCCCCCCCCCCCCCCC(=O)*; NMeT = CN[C@H](C(=O)O)[C@@H](C)O; NMeK = CN[C@@H](CCCCN)C(=O)O; Isovaleryl = CC(C)CC(=O)*; AEEA = NCCOCCOCC(=O)O; Ahx = NCCCCCC(=O)O
target: T1, ferroportin (Homo sapiens, UniProt Q9NP59); assay: T47D cell-based ferroportin internalization assay in presence of mouse serum albumin (MSA); parameters: a human breast carcinoma adherent cell line which endogenously expresses ferroportin; host or cells: T47D; settings: Table 6E; T47D internalization assay with MSA
T1 sequence (Q9NP59 1-571): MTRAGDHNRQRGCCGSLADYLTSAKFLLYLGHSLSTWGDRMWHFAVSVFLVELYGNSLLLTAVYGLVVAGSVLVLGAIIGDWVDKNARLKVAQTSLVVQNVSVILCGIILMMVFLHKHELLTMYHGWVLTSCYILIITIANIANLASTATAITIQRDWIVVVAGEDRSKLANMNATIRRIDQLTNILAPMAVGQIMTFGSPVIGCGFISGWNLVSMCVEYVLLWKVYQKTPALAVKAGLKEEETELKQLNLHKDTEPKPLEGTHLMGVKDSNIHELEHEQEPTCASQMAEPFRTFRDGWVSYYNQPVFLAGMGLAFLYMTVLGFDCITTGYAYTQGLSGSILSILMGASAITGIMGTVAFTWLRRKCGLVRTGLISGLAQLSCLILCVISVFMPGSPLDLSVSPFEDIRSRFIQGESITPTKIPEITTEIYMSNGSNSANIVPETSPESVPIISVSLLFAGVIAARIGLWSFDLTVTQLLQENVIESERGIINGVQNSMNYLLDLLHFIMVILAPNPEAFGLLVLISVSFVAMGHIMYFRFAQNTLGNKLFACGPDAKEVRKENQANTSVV
Protocol: The potency of the peptides in causing ferroportin internalization was evaluated in a T47D cell-based assay. […] In this internalization assay, the potency of the test peptides was evaluated in presence of serum albumin which is the main protein component in the blood. T47D cells were maintained in RPMI media (containing required amount of fetal bovine serum) and regularly sub-cultured. In preparation for the assay, the cells were seeded in 96-well plates at a density of 80-100 k cells per well in 100 ul volume and allowed to rest overnight. […] Sigma, A3139). The test peptide dilution series were allowed to incubate at room temperature for 30 min. Then the media was aspirated from the 96-well cell plate and test peptide dilution series were added. […] The AF647-conjugated detection peptide was previously verified to bind to ferroportin and cause its internalization. The cells were washed again after a 2 hr incubation in preparation for flow cytometry analysis. The Median Fluorescence Intensity (MFI) of the AF647-positive population was measured (after removing dead cells and non-singlets from the analysis). The MFI values were used to generate a dose-response curve and obtain IC50 potencies for the test peptides.

| SMILES | IC50 [nM] |
| --- | --- |
| CCCCCCCCCCCCCCCC(=O)NCCCCCC(=O)NCCCC[C@@H](C(=O)N[C@H](C(N)=O)C(c1ccccc1)c1ccccc1)N(C)C(=O)[C@@H]1CSSC[C@H](NC(=O)[C@@H]2CCCN2C(=O)[C@@H](NC(=O)[C@H](Cc2cnc[nH]2)NC(=O)[C@H]([C@@H](C)O)N(C)C(=O)[C@H](CCC(=O)O)NC(=O)CC(C)C)C(c2ccccc2)c2ccccc2)C(=O)N1 [compound 172] (Isovaleryl-E[NMeT]H[Dip]PCC[NMeK]([Ahx-Palmitoyl])[Dip]-NH2; disulfide 6-7) | 1 to 10 |
| CCCCCCCCCCCCCCCC(=O)NCCCCCC(=O)NCCCC[C@@H](C(=O)N[C@H](C(=O)N[C@H](CCCCN)C(N)=O)C(c1ccccc1)c1ccccc1)N(C)C(=O)[C@@H]1CSSC[C@H](NC(=O)[C@@H]2CCCN2C(=O)[C@@H](NC(=O)[C@H](Cc2cnc[nH]2)NC(=O)[C@H]([C@@H](C)O)N(C)C(=O)[C@H](CCC(=O)O)NC(=O)CC(C)C)C(c2ccccc2)c2ccccc2)C(=O)N1 [compound 173] (Isovaleryl-E[NMeT]H[Dip]PCC[NMeK]([Ahx-Palmitoyl])[Dip][dK]-NH2; disulfide 6-7) | 1 to 10 |
| CCCCCCCCCCCCCCCC(=O)NCC[N+](C)(C)CC(=O)NCCCC[C@@H](C(=O)N[C@H](C(=O)N[C@H](CCCCN)C(N)=O)C(c1ccccc1)c1ccccc1)N(C)C(=O)[C@@H]1CSSC[C@H](NC(=O)[C@@H]2CCCN2C(=O)[C@@H](NC(=O)[C@H](Cc2cnc[nH]2)NC(=O)[C@@H](NC(=O)[C@H](CCC(=O)OC)NC(=O)CC(C)C)[C@@H](C)O)C(c2ccccc2)c2ccccc2)C(=O)N1 [compound 175] (Isovaleryl-E(OMe)TH[Dip]PCC[NMeK](X5)[Dip][dK]-NH2; disulfide 6-7) | 1 to 10 |
| COC(=O)CC[C@H](NC(=O)CC(C)C)C(=O)N(C)[C@H](C(=O)N[C@@H](Cc1c[nH]cn1)C(=O)N[C@H](C(=O)N1CCC[C@H]1C(=O)N[C@H]1CSSC[C@@H](C(=O)N(C)[C@@H](CCCCNC(=O)C[N+](C)(C)CCNC(=O)CCCCCCCCCCCCCCCCC(=O)O)C(=O)N[C@H](C(N)=O)C(c2ccccc2)c2ccccc2)NC1=O)C(c1ccccc1)c1ccccc1)[C@@H](C)O [compound 186] (Isovaleryl-E(OMe)[NMeT]H[Dip]PCC[NMeK](X1)[Dip]-NH2; disulfide 6-7) | 100 to 500 |
| CC(C)CC(=O)N[C@@H](CCC(=O)O)C(=O)N(C)[C@H](C(=O)N[C@@H](Cc1c[nH]cn1)C(=O)N[C@H](C(=O)N1CCC[C@H]1C(=O)N[C@H]1CSSC[C@@H](C(=O)N(C)[C@@H](CCCCNC(=O)C[N+](C)(C)CCNC(=O)CCCCCCCCCCCCCCCCC(=O)O)C(=O)N[C@H](C(=O)N[C@H](CCCCN)C(N)=O)C(c2ccccc2)c2ccccc2)NC1=O)C(c1ccccc1)c1ccccc1)[C@@H](C)O [compound 187] (Isovaleryl-E[NMeT]H[Dip]PCC[NMeK](X1)[Dip][dK]-NH2; disulfide 6-7) | 10 to 100 |
| CC(C)CC(=O)N[C@@H](CCC(=O)O)C(=O)N1CCC[C@H]1C(=O)N[C@@H](Cc1c[nH]cn1)C(=O)N[C@H](C(=O)N1CCC[C@H]1C(=O)N[C@H]1CSSC[C@@H](C(=O)N(C)[C@@H](CCCCNC(=O)CCCCCNC(=O)C[N+](C)(C)CCNC(=O)CCCCCCCCCCCCCCCCC(=O)O)C(=O)N[C@H](C(=O)N[C@H](CCCCN)C(N)=O)C(c2ccccc2)c2ccccc2)NC1=O)C(c1ccccc1)c1ccccc1 [compound 188] (Isovaleryl-EPH[Dip]PCC[NMeK]([Ahx-X1])[Dip][dK]-NH2; disulfide 6-7) | > 500 |
| CC(C)CC(=O)N[C@@H](CCC(=O)O)C(=O)N(C)[C@H](C(=O)N[C@@H](Cc1c[nH]cn1)C(=O)N[C@H](C(=O)N1CCC[C@H]1C(=O)N[C@H]1CSSC[C@@H](C(=O)N(C)[C@@H](CCCCNC(=O)CCCCCNC(=O)C[N+](C)(C)CCNC(=O)CCCCCCCCCCCCCCCCC(=O)O)C(=O)N[C@H](C(N)=O)C(c2ccccc2)c2ccccc2)NC1=O)C(c1ccccc1)c1ccccc1)[C@@H](C)O [compound 189] (Isovaleryl-E[NMeT]H[Dip]PCC[NMeK]([Ahx-X1])[Dip]-NH2; disulfide 6-7) | 100 to 500 |
| CC(C)CC(=O)N[C@@H](CCC(=O)O)C(=O)N(C)[C@H](C(=O)N[C@@H](Cc1c[nH]cn1)C(=O)N[C@H](C(=O)N1CCC[C@H]1C(=O)N[C@H]1CSSC[C@@H](C(=O)N(C)[C@@H](CCCCNC(=O)CCCCCNC(=O)C[N+](C)(C)CCNC(=O)CCCCCCCCCCCCCCCCC(=O)O)C(=O)N[C@H](C(=O)N[C@H](CCCCN)C(N)=O)C(c2ccccc2)c2ccccc2)NC1=O)C(c1ccccc1)c1ccccc1)[C@@H](C)O [compound 190] (Isovaleryl-E[NMeT]H[Dip]PCC[NMeK]([Ahx-X1])[Dip][dK]-NH2; disulfide 6-7) | 100 to 500 |
| CC(C)CC(=O)N[C@@H](CCC(=O)O)C(=O)N1CC[C@@H](O)[C@H]1C(=O)N[C@@H](Cc1c[nH]cn1)C(=O)N[C@H](C(=O)N1CCC[C@H]1C(=O)N[C@H]1CSSC[C@@H](C(=O)N(C)[C@@H](CCCCNC(=O)CCCCCNC(=O)C[N+](C)(C)CCNC(=O)CCCCCCCCCCCCCCCCC(=O)O)C(=O)N[C@H](C(=O)N[C@H](CCCCN)C(N)=O)C(c2ccccc2)c2ccccc2)NC1=O)C(c1ccccc1)c1ccccc1 [compound 191] (Isovaleryl-E[Pro(3R-OH)]H[Dip]PCC[NMeK]([Ahx-X1])[Dip][dK]-NH2; disulfide 6-7) | 10 to 100 |
| CC(C)CC(=O)N[C@@H](CCC(=O)O)C(=O)N1CC[C@H](O)[C@H]1C(=O)N[C@@H](Cc1c[nH]cn1)C(=O)N[C@H](C(=O)N1CCC[C@H]1C(=O)N[C@H]1CSSC[C@@H](C(=O)N(C)[C@@H](CCCCNC(=O)CCCCCNC(=O)C[N+](C)(C)CCNC(=O)CCCCCCCCCCCCCCCCC(=O)O)C(=O)N[C@H](C(=O)N[C@H](CCCCN)C(N)=O)C(c2ccccc2)c2ccccc2)NC1=O)C(c1ccccc1)c1ccccc1 [compound 192] (Isovaleryl-E[Pro(3S-OH)]H[Dip]PCC[NMeK]([Ahx-X1])[Dip][dK]-NH2; disulfide 6-7) | 10 to 100 |
| CC(C)CC(=O)N[C@H]1CCC(=O)NCCCC[C@H](C(N)=O)NC(=O)[C@H](C(c2ccccc2)c2ccccc2)NC(=O)[C@H](CCCCNC(=O)CCCCCNC(=O)C[N+](C)(C)CCNC(=O)CCCCCCCCCCCCCCCCC(=O)O)N(C)C(=O)[C@@H]2CSSC[C@H](NC(=O)[C@@H]3CCCN3C(=O)[C@H](C(c3ccccc3)c3ccccc3)NC(=O)[C@H](Cc3cnc[nH]3)NC(=O)[C@H]([C@@H](C)O)NC1=O)C(=O)N2 [compound 193] (Isovaleryl-ETH[Dip]PCC[NMeK]([Ahx-X1])[Dip][dK]-NH2; lactam 1-10; disulfide 6-7) | 10 to 100 |
| CCCCCCCCCCCCCCCC(=O)NCC[N+](C)(C)CC(=O)NCCCCCC(=O)NCCCC[C@@H](C(=O)N[C@H](C(=O)N[C@H](CCCCN)C(N)=O)C(c1ccccc1)c1ccccc1)N(C)C(=O)[C@@H]1CSSC[C@H](NC(=O)[C@@H]2CCCN2C(=O)[C@@H](NC(=O)[C@H](Cc2cnc[nH]2)NC(=O)[C@@H](NC(=O)[C@H](CCC(=O)O)NC(=O)CC(C)C)[C@@H](C)O)C(c2ccccc2)c2ccccc2)C(=O)N1 [compound 197] (Isovaleryl-ETH[Dip]PCC[NMeK]([Ahx-X5])[Dip][dK]-NH2; disulfide 6-7) | 1 to 10 |
| CC(C)CC(=O)N[C@@H](CCC(=O)O)C(=O)N[C@H](C(=O)N[C@@H](Cc1cnc[nH]1)C(=O)N[C@H](C(=O)N1CCC[C@H]1C(=O)N[C@H]1CSSC[C@@H](C(=O)N(C)[C@@H](CCCCNC(=O)CCCCCNC(=O)C[N+](C)(C)CCNC(=O)CCCCCCCCCCCCCCCCC(=O)O)C(=O)N[C@H](C(=O)N[C@H](CCCCN)C(N)=O)C(c2ccccc2)c2ccccc2)NC1=O)C(c1ccccc1)c1ccccc1)[C@@H](C)O [compound 198] (Isovaleryl-ETH[Dip]PCC[NMeK]([Ahx-X1])[Dip][dK]-NH2; disulfide 6-7) | 10 to 100 |
| COCCOCCOCCOCCOCCOCCOCCOCCOCCOCCOCCOCCC(=O)NCCCC[C@@H](NC(=O)[C@@H](NC(=O)[C@H](CCCCNC(=O)COCCOCCNC(=O)COCCOCCNC(=O)C[N+](C)(C)CCNC(=O)CCCCCCCCCCCCCCCCC(=O)O)NC(=O)[C@@H]1CSSC[C@H](NC(=O)[C@@H]2CCCN2C(=O)[C@@H](NC(=O)[C@H](Cc2c[nH]cn2)NC(=O)[C@@H](NC(=O)[C@H](CCC(=O)O)NC(=O)CC(C)C)[C@@H](C)O)C(c2ccccc2)c2ccccc2)C(=O)N1)C(c1ccccc1)c1ccccc1)C(N)=O [compound 203] (Isovaleryl-ETH[Dip]PCCK([AEEA-AEEA-X1])[Dip][dK](CH3O(CH2CH2O)11CH2CH2CO)-NH2; disulfide 6-7) | 10 to 100 |
